Reference: US6448399B1, “Fused heteroaromatic glucokinase activators” (Hoffmann-La Roche Inc., priority 2000, dated 2002)

What follows are compounds tested on C57BL/6J mice (assay: Glucokinase activator in vivo screen (blood glucose after oral dosing)). Conditions: administered orally, 50 mg/kg, active = significant (p≦0.05) decrease in blood glucose vs vehicle at two consecutive time points.
Experimental: Glucokinase Activator in vivo Screen Protocol
C57BL/6J mice are orally dosed via gavage with Glucokinase (GK) activator at 50 mg/kg body weight following a two hour fasting period. Blood glucose determinations are made five times during the six hour post-dose study period.
Mice (n=6) are weighed and fasted for a two hour period prior to oral treatment. GK activators are formulated at 6.76 mg/ml in Gelucire vehicle (Ethanol:Gelucire44/14:PEG400q.s. 4:66:30 v/w/v. Mice are dosed orally with 7.5 μL formulation per gram of body weight to equal a 50 mg/kg dose. Immediately prior to dosing, a pre dose (time zero) blood glucose reading is acquired by snipping off a small portion of the animals tail (˜1 mm) and collecting 15 μL blood into a heparinized capillary tube for analysis. Following GK activator administration, additional blood glucose readings are taken at 1, 2, 4, and 6 hours post dose from the same tail wound. Results are interpreted by comparing the mean blood glucose values of six vehicle treated mice with six GK activator treated mice over the six hour study duration.
In the case of CS(=O)(=O)c1ccc([C@@H](CC2CCCC2)C(=O)Nc2nc3ccccc3s2)cc1Cl [Example 19, N-Benzothiazol-2-yl-2(R)-(3-chloro-4-methanesulfonyl-phenyl)-3-cyclopentyl-propionamide], the “glucokinase activator in vivo activity” value is reported as “excellent glucokinase activator in vivo activity”.
For CS(=O)(=O)c1ccc(C(CC2CCCC2)C(=O)Nc2nc3ccccc3[nH]2)cc1Cl (stereo not drawn) [Example 20, N-(1H-Benzoimidazol-2-yl)-2-(3-chloro-4-methanesulfonyl-phenyl)-3-cyclopentyl-propionamide], the “glucokinase activator in vivo activity” value was “excellent glucokinase activator in vivo activity”.
With CS(=O)(=O)c1ccc(C(CC2CCCC2)C(=O)Nc2ccc3ccccc3n2)cc1Cl (stereo not drawn) [Example 22, 2-(3-Chloro-4-methanesulfonyl-phenyl)-3-cyclopentyl-N-quinolin-2-yl-propionamide] the “glucokinase activator in vivo activity” value was “excellent glucokinase activator in vivo activity”.
